Target: T1, GlyR α1 WT (Homo sapiens, UniProt P23415)
T1 sequence (P23415 29-457): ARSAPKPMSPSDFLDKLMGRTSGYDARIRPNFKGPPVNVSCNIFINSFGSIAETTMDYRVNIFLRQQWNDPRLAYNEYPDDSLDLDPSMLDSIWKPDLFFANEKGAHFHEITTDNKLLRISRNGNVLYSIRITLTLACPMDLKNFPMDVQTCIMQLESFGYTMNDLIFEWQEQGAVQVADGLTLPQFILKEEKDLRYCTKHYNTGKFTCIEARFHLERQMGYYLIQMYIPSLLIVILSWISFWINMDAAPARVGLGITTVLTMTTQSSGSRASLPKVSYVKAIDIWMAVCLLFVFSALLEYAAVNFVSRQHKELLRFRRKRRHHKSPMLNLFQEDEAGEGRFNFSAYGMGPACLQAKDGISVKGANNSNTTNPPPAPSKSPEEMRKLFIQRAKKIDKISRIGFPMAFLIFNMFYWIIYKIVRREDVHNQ
Assay: Cell-attached single-channel recording of wild-type GlyR α1 in HEK 293 cells
Format: cell-based

Burst durations Area, component 1 (α1 WT +30 μM Gly): 28 ± 7%
Burst durations Area, component 2 (α1 WT +30 μM Gly): 22 ± 4%
Burst durations Area, component 3 (α1 WT +30 μM Gly): 35 ± 5%
Burst durations Area, component 4 (α1 WT +30 μM Gly): 19 ± 7%
Burst durations τB, component 1 (α1 WT +30 μM Gly): 0.3 ± 0.06 ms
Burst durations τB, component 2 (α1 WT +30 μM Gly): 1.4 ± 0.6 ms
Burst durations τB, component 3 (α1 WT +30 μM Gly): 6.9 ± 2.2 ms
Burst durations τB, component 4 (α1 WT +30 μM Gly): 63.4 ± 14.8 ms
Closed times Area, component 1 (α1 WT +30 μM Gly): 44 ± 16%
Closed times Area, component 2 (α1 WT +30 μM Gly): 35 ± 15%
Closed times Area, component 3 (α1 WT +30 μM Gly): 8 ± 1%
Closed times Area, component 4 (α1 WT +30 μM Gly): 10 ± 2%
Closed times Area, component 5 (α1 WT +30 μM Gly): 4 ± 1%
Closed times τC, component 1 (α1 WT +30 μM Gly): 0.22 ± 0.03 ms
Closed times τC, component 2 (α1 WT +30 μM Gly): 0.90 ± 0.24 ms
Closed times τC, component 3 (α1 WT +30 μM Gly): 4.3 ± 1.6 ms
Closed times τC, component 4 (α1 WT +30 μM Gly): 109 ± 6.2 ms
Closed times τC, component 5 (α1 WT +30 μM Gly): 2200 ± 1000 ms
Open times Area, component 1 (α1 WT +30 μM Gly): 36 ± 11%
Open times Area, component 2 (α1 WT +30 μM Gly): 39 ± 3%
Open times Area, component 3 (α1 WT +30 μM Gly): 26 ± 10%
Open times τO, component 2 (α1 WT +30 μM Gly): 1.5 ± 0.2 ms
Open times τO, component 3 (α1 WT +30 μM Gly): 8.9 ± 2.1 ms
Open times τO, component 1 (α1 WT +30 μM Gly, +60 mV pipette potential): 0.28 ± 0.029 ms
Estimated single channel conductance (α1 WT activated by glycine): ~ 60 pS
PO (open probability within clusters/bursts) (α1 WT activated by glycine): 0.9 ± 0.03
Single channel Amplitude (α1 WT activated by glycine, +60 mV pipette potential): 4 – 5 pA
Single channel Amplitude (α1 WT activated by glycine, +60 mV pipette potential, listed as Gly): 4.5 ± 0.7 pA
Compound: NCC(=O)O [Glycine, glycine]

Source: PMC6685790 (Nature structural & molecular biology, 2008)
